Source: EP4806892A1, “CEREBLON E3 UBIQUITIN LIGASE INHIBITOR” (GAN & LEE PHARMACEUTICALS CO., LTD., priority 2023, dated 2025)

Key:
Format in all cases: cell-based
AR protein = biological target: T1, AR protein (Homo sapiens, UniProt P10275, T878A); assay: AR protein degradation in LNCaP cells (Western blot); conditions: 8 hours
T1 construct: AR-positive human prostate cancer cells (LNCaP, cell source: ATCC); host or cells: LNCaP
Experimental: AR-positive human prostate cancer cells (LNCaP, cell source: ATCC) were cultured in RPMI 1640 (ATCC catalog number 30-2001) containing 10% FBS (Hyclone catalog number SH30406.05), and the cells were inoculated into a six-well microplate (Thermo catalog number 140675) at a density of 1.5 × 10^5 cells/well. After the cells were cultured overnight in a carbon dioxide incubator (ESCO), the prepared compound of the present invention and the positive control sample ARV-766 (source: energy chemical) solution of different concentrations were added at a volume of 1 µL/well to make the final concentrations of the compound and the positive control sample reach 100nM and 10nM, respectively. At the same time, the corresponding solvent control was set and cultured for 8 hours. After 8 hours of culture, the culture medium was removed, the cells were washed with PBS, and RIPA lysis buffer containing 1% Protease Inhibitor Cocktail was added. After lysis and centrifugation, the total protein extract was obtained, and the protein concentration in the extract was detected by BCA method. Protein electrophoresis was performed using SDS-PAGE, and then the protein was transferred to a PVDF (Millipore Sigma catalog number PSRP010R5) membrane at a constant voltage of 100V for 60 minutes. The PVDF membrane was placed in a 5% milk powder 1×TBST solution and blocked at room temperature for 1 hour. The primary antibody solution (Anti-Androgen receptor, Cell Signaling Technology catalog number: 5153S; 1:2000 dilution) was prepared and incubated at 4°C overnight. The primary antibody solution was discarded and the PVDF membrane was washed with 1×TBST for 5 minutes each time, three times. The secondary antibody solution (Thermo, catalog number SA5-35571; 1:7500 dilution) was prepared and incubated at room temperature for 1 hour. The secondary antibody solution was discarded and the PVDF membrane was washed with 1×TBST for 5 minutes each time, three times. A dual-color infrared laser imaging system (Licor catalog number Odyssey CLX) was used for Western membrane imaging. The Image Studio software was used to analyze the grayscale of the bands. GAPDH protein bands were also detected for each sample as an internal reference. The AR protein degradation rate of the compound and the positive control sample was calculated based on the grayscale of the protein bands. Among them, "A" means degradation rate ≥ 50%, "B" means 50%> degradation rate ≥ 20%, "C" means 20% degradation rate ≥ 10%, and "D" means degradation rate less than 10%.

LNCAP cell = assay: LNCaP cell proliferation inhibition (WST-8); conditions: Homo sapiens, LNCaP FGC cells, 96 hours, read-out: IC50 for inhibiting LNCAP cell proliferation
Experimental: LNCaP FGC cells (ATCC, CLR-1740) were cultured in RPMI 1640 (ATCC, 30-2001) complete medium supplemented with 10% fetal bovine serum (Hyclone, SH30406.05). On the first day of the experiment, LNCaP FGC cells were seeded at a density of 5,000 cells/well in 96-well plates using RPMI 1640 medium supplemented with 10% fetal bovine serum, with 100 µL of cell suspension per well. The cells were cultured overnight in a 37°C, 5% CO2 cell incubator. On the second day, 100 µL of different concentrations of the compound to be tested and the positive control sample ARV-766 (source: Energy Chemical) prepared in culture medium were added to each well. The final concentration of the compound was 9 concentration points of 5-fold serial dilution starting from 10 µM. The wells to which 100 µL of RPMI 1640 culture medium containing 10% fetal bovine serum was added were set as controls. The cells were cultured in a cell culture incubator at 37°C and 5% CO2 for 96 hours. On the sixth day, the 96-well cell culture plate was removed, and 1/10 volume of WST-8 (Beytime, C0040) reagent was added to each well. The absorbance at 450 nm was detected using a microplate reader (TECAN, F50).

VCaP cell = VCaP cell proliferation inhibition (WST-8); conditions: Homo sapiens, VCaP cells, 168 hours, read-out: IC50 for inhibiting VCAP cell proliferation
Experimental: VCaP cells (ATCC, CRL-2876) were cultured in DMEM (Gibco, 11995-065) complete medium containing 10% fetal bovine serum (Hyclone, SH30406.05). On the first day of the experiment, VCaP cells were seeded at a density of 15,000 cells/well in a 96-well plate using DMEM medium containing 10% fetal bovine serum, with 100 µL of cell suspension per well, and cultured overnight in a cell culture incubator at 37°C and 5% CO2. […] The final concentration of the compound was 9 concentration points of 5-fold serial dilution starting from 10 µM. The wells to which 100 µL of DMEM medium containing 10% fetal bovine serum was added were set as blank controls and cultured in a cell culture incubator at 37°C and 5% CO2 for 168 hours. On the ninth day, the 96-well cell culture plate was removed and 1/10 volume of WST-8 (Beytime, C0040) reagent was added to each well. The absorbance at 450 nm was measured using a microplate reader (TECAN, F50).

T-47D cells = assay: T-47D cell proliferation inhibition (CCK-8); conditions: Homo sapiens, T47D, 144 h, 6 days
Experimental: The complete culture medium required for breast ductal carcinoma T-47D cells is 1640 (ATCC, Product number: A10491-01) basal medium containing 10% fetal bovine serum. T-47D cells were seeded in 96-well plates at a density of 3,000/well, and different concentrations of PROTAC compounds 1-55 provided in the embodiments of the present invention and the positive control sample ARV-471 (source: Inokai) were prepared to treat the cells and incubated at 37°C, 5% CO2 in a cell culture incubator for 6 days. According to the manufacturer's instructions, the CCK-8 kit (Beyotime, Product number: C0040) was used to detect cell viability. The IC50 of each compound for 6 days was calculated using GraphPadPrism software based on the inhibition rate. Table 6: IC50 value for the inhibition of T-47D cell proliferation by PROTAC compounds and positive control sample

MCF-7 cells = assay: MCF-7 cell proliferation inhibition (CCK-8); conditions: Homo sapiens, MCF7, 144 h, 6 days
Experimental: The complete culture medium required for breast cancer MCF-7 cells (source ATCC) is DMEM (gibco, Product number: 11995-065) basal medium containing 10% fetal bovine serum. MCF-7 cells were seeded in 96-well plates at a density of 800 cells/well, and different concentrations of PROTAC compounds 1-55 provided in the embodiments of the present invention and the positive control sample ARV-471 (source: Inokai) were prepared to treat cells. The cells were incubated at 37 °C and 5% CO2 in a cell culture incubator for 6 days. Cell viability was detected using a CCK-8 kit (Beyotime, Product number: C0040) according to the manufacturer's instructions. The IC50 value of each PROTAC compound for 6 days was calculated using GraphPad Prism software based on the inhibition rate. Table 7: IC50 value for the inhibition of MCF-7 cell proliferation by PROTAC compounds of the present disclosure and positive control sample

T1 sequence (P10275 whole entry T878A): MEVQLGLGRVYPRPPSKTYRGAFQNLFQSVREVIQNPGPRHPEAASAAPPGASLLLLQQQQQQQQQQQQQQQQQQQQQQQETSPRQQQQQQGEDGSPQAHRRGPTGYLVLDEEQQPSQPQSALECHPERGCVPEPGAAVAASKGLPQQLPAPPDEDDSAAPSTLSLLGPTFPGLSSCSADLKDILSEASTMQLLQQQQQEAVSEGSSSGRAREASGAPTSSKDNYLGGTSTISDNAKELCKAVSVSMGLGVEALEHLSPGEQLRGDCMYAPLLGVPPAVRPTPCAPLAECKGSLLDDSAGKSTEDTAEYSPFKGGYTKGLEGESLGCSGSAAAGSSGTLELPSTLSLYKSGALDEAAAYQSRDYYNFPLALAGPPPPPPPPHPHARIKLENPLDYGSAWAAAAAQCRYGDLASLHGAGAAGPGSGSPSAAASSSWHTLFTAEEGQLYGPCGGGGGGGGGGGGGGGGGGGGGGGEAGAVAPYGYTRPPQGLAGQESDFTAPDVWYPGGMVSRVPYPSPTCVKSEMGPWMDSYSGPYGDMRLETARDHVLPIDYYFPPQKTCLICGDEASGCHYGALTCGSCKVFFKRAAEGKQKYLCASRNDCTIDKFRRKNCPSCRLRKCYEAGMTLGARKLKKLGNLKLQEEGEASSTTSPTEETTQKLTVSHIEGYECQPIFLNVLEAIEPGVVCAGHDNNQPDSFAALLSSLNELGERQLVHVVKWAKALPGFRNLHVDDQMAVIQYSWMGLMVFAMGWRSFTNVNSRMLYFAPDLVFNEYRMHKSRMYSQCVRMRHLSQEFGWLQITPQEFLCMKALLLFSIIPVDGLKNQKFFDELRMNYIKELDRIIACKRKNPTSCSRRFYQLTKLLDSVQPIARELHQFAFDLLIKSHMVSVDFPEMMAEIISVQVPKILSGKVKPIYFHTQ
T1 sequence (Q96SW2 whole entry partner): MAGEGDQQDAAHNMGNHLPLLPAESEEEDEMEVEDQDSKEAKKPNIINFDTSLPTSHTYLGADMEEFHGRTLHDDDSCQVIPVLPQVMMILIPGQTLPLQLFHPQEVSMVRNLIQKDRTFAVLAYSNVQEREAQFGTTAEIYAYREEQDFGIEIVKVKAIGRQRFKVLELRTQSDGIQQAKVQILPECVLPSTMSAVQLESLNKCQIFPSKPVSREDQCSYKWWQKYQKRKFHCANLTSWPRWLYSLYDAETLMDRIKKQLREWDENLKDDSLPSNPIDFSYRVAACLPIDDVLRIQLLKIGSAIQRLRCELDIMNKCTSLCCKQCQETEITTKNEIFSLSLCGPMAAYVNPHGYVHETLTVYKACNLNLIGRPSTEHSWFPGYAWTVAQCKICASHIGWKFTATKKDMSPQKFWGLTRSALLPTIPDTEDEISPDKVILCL

SMILES	Degradation rate of AR protein in LNCAP cells (AR protein; 10 nM)	Degradation rate of AR protein in LNCAP cells (AR protein; 100 nM)	IC50 (LNCAP cell) [nM]	IC50 (VCaP cell) [nM]	IC50 (T-47D cells) [nM]	IC50 (MCF-7 cells) [nM]
COc1cc(N2CC3(CCN(c4ccc(C(=O)N5CCC(CN6CCC7(CCc8ccc(N9CCC(=O)NC9=O)cc8O7)CC6)CC5)cc4)CC3)C[C@@H]2C)ccc1C#N [A-P-83, (S)-4-(8-(4-(4-((7-(2,4-dioxotetrahydropyrimidin-1(2H)-yl)spiro[chroman-2,4'-piperidine]-1'-yl)methyl)piperidine-1-carbonyl)phenyl)-3-methyl-2,8-diazaspiro[4.5]dec-2-yl)-2-methoxybenzonitrile]	A (degradation rate ≥ 50%)	A (degradation rate ≥ 50%)	550	< 0.026		
O=C1CCN(c2ccc3c(c2)OCC32CCN(C[C@H]3CC[C@@H](OC4CCN(c5ccc([C@@H]6c7ccc(O)cc7CC[C@@H]6c6ccccc6)cc5)CC4)CC3)CC2)C(=O)N1 [ER-P-4, 1-(1'-(((1S,4S)-4-((1-(4-((1R,2S)-6-hydroxy-2-phenyl-1,2,3,4-tetrahydronaphthalen-1-yl)phenyl)piperidin-4-yl)oxy)cyclohexyl)methyl)-2H-spiro [benzofuran-3,4'-piperidine]-6-yl)dihydropyrimidine-2,4(1H,3H)-dione]					52.5	944
O=C1CCC(c2ccc3c(c2)OC2(CC3)CCN(C[C@H]3CC[C@@H](OC4CCN(c5ccc([C@@H]6c7ccc(O)cc7CC[C@@H]6c6ccccc6)cc5)CC4)CC3)CC2)C(=O)N1 (stereo partly drawn) [ER-P-5, 3-(1'-(((1S,4S)-4-((1-(4-((1R,2S)-6-hydroxy-2-phenyl-1,2,3,4-tetrahydronaphthyl-1-yl)phenyl)piperidin-4-yl)oxy)cyclohexyl)methyl)spiro[chroman-2,4'-piperidine]-7-yl)piperidine-2,6-dione]						873

The next lines start with results.

Degradation rate of AR protein in LNCAP cells (AR protein; 10 nM)	Degradation rate of AR protein in LNCAP cells (AR protein; 100 nM)	IC50 (LNCAP cell) [nM]	IC50 (VCaP cell) [nM]	IC50 (T-47D cells) [nM]	SMILES	IC50 (MCF-7 cells) [nM]
				2.69	O=C1CC[C@H](N2Cc3cc(N4CCN(CC5CCN(c6ccc([C@@H]7c8ccc(O)cc8CC[C@@H]7c7ccccc7)cc6)CC5)CC4)ccc3C2=O)C(=O)N1 [ARV-471, reference compound]	113
				367	O=C1CCN(c2ccc3c(c2)CC2(CCN(C[C@H]4CC[C@@H](OC5CCN(c6ccc([C@@H]7c8ccc(O)cc8CC[C@@H]7c7ccccc7)cc6)CC5)CC4)CC2)CO3)C(=O)N1 [ER-P-6, 1-(1'-(((1S,4S)-4-((1-(4-((1R,2S)-6-hydroxy-2-phenyl-1,2,3,4-tetrahydronaphthalen-1-yl)phenyl)piperidin-4-yl)oxy)cyclohexyl)methyl)spiro[benzo-dihydro-3,4'-piperidin]-6-yl)dihydropyrimidine-2,4(1H,3H)-dione]	847
